According to patent US8106055B2, “Substituted amide compounds” (Gruenenthal GmbH, priority 2007, dated 2012):

These compounds were tested against T1, human bradykinin 1 receptor (B1R) (Homo sapiens, UniProt P46663) (assay: Functional investigation on the human bradykinin 1 receptor (B1R), Ca2+ FLIPR assay in CHO K1 hB1R cells). Conditions: B1R antagonism human; test substance 10 μM; Ca2+ FLIPR, CHO K1 hB1R cells.
T1 construct: expressed in transfected cells; host or cells: CHO K1 cells
T1 sequence (P46663 1-353): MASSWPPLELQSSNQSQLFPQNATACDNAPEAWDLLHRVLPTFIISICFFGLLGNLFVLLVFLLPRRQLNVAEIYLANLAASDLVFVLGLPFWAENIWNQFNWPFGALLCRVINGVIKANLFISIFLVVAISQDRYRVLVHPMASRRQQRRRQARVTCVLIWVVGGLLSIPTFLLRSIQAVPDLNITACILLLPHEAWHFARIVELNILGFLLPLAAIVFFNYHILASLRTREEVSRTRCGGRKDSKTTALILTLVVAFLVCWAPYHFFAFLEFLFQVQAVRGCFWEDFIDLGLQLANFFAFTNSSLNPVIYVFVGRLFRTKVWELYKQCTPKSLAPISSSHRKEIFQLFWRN
Type: cell-based
Outline: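 Cells were dye-loaded with Fluo-4 plus probenecid, then test substances added and Ca2+ influx compared with agonist control for % activation. After 10-20 min, EC80 agonist (Lys-Des-Arg9-bradykinin human; Des-Arg9-bradykinin rat) was applied; suppression gave % inhibition and IC50 values.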

Going from `COc1cc(C)c(S(=O)(=O)N(C)CCOCC(=O)NCC2CCC(C(c3cccc(F)c3)N(C)C)CC2)c(C)c1` (stereo not shown) [Example 248] to `COc1cc(C)c(S(=O)(=O)N2CCC(OCC(=O)NCC3CCC(C(c4cccc(F)c4)N(C)C)CC3)C2)c(C)c1` (stereo not shown) [Example 265], the “B1R Ant. h [10 μM] % Inhibition” value falls from 104% to 93%.

Compared with `CN(C)C(c1ccc(F)cc1)C1CCC(CNC(=O)COCCN(C)S(=O)(=O)c2ccc(Cl)cc2Cl)CC1` (stereo not shown) [Example 249], `CN(C)C(c1ccc(Cl)cc1)C1CCC(CNC(=O)COCCN(C)S(=O)(=O)c2ccc(F)cc2)CC1` (stereo not shown) [Example 263] is lower in “B1R Ant. h [10 μM] % Inhibition” value: 104% for the first, 18% for the second.

First: COc1ccc(S(=O)(=O)N(C)CCOCC(=O)NC2CCC(C(c3cccc(F)c3)N(C)C)CC2)cc1 (stereo not shown) [Example 250]
Second: COc1ccc(S(=O)(=O)N2CCCC2COCC(=O)NC2CCC(C(c3cccc(F)c3)N(C)C)CC2)cc1 (stereo not shown) [Example 268]
The “B1R Ant. h [10 μM] % Inhibition” value of the first is higher: 12% for the first, 7% for the second.

First: COc1cc(C)c(S(=O)(=O)N2CCC(OCC(=O)NC3CCC(C(c4cccc(F)c4)N(C)C)CC3)C2)c(C)c1 (stereo not shown) [Example 251]
Second: Cc1cc(C)c(S(=O)(=O)N2CCC(OCC(=O)NCCC3CCC(C(c4cccc(F)c4)N(C)C)CC3)C2)c(C)c1 (stereo not shown) [Example 264]
The “B1R Ant. h [10 μM] % Inhibition” value of the first is higher: 81% for the first, 77% for the second.

Compared with `COc1cc(C)c(S(=O)(=O)N2CCC(OCC(=O)NCC3CCC(C(c4cccc(F)c4)N(C)C)CC3)C2)c(C)c1C` (stereo not shown) [Example 252], `COc1cc(C)c(S(=O)(=O)N2CCC(OCC(=O)NCCC3CCC(C(c4cccc(F)c4)N(C)C)CC3)C2)c(C)c1C` (stereo not shown) [Example 253] is lower in “B1R Ant. h [10 μM] % Inhibition” value: 59% for the first, 47% for the second.

Compared with `COc1cc(C)c(S(=O)(=O)N(CCOCC(=O)NCCC2CCC(C(c3cccs3)N(C)C)CC2)Cc2ccccc2)c(C)c1C` (stereo not shown) [Example 254], `CN(C)C(c1ccc(Cl)cc1)C1CCC(CCNC(=O)COCCN(C)S(=O)(=O)c2c(Cl)cccc2Cl)CC1` (stereo not shown) [Example 274] is higher in “B1R Ant. h [10 μM] % Inhibition” value: 27% for the first, 100% for the second.

First: COc1ccc(S(=O)(=O)N2CCCCC2COCC(=O)NC2CCC(C(c3cccc(F)c3)N(C)C)CC2)cc1 (stereo not shown) [Example 255]
Second: CN(C)C(c1cccc(F)c1)C1CCC(NC(=O)COCC2CCCN(S(=O)(=O)c3ccccc3)C2)CC1 (stereo not shown) [Example 266]
The “B1R Ant. h [10 μM] % Inhibition” value of the first is higher: 37% for the first, 4% for the second.

First: CN(C)C(c1ccc(F)cc1)C1CCC(NC(=O)COC2CCCCC2N(C)S(=O)(=O)c2ccc(Cl)c(Cl)c2)CC1 (stereo not shown) [Example 256]
Second: CN(C)C(c1ccc(Cl)cc1)C1CCC(CNC(=O)COC2CCCCC2N(C)S(=O)(=O)c2ccc(Cl)c(Cl)c2)CC1 (stereo not shown) [Example 269]
The “B1R Ant. h [10 μM] % Inhibition” value of the first is higher: 52% for the first, 7% for the second.

Going from `CN(C)C(c1cccc(F)c1)C1CCC(CNC(=O)COC2CCN(S(=O)(=O)c3ccc(Cl)cc3)C2)CC1` (stereo not shown) [Example 258] to `CN(C)C(c1cccc(F)c1)C1CCC(CNC(=O)COC2CCN(S(=O)(=O)c3ccc(F)cc3)C2)CC1` (stereo not shown) [Example 275], the “B1R Ant. h [10 μM] % Inhibition” value rises from −12% to 15%.

First: CN(C)C(c1cccc(F)c1)C1CCC(CCNC(=O)COC2CCN(S(=O)(=O)c3ccc(Cl)cc3Cl)C2)CC1 (stereo not shown) [Example 259]
Second: COc1ccc(S(=O)(=O)N2CCC(OCC(=O)NCCC3CCC(C(c4cccc(F)c4)N(C)C)CC3)C2)cc1OC (stereo not shown) [Example 262]
The “B1R Ant. h [10 μM] % Inhibition” value of the first is higher: 72% for the first, −6% for the second.

Going from `COc1ccc(S(=O)(=O)N2CCC(OCC(=O)NCC3CCC(C(c4ccc(Cl)cc4)N(C)C)CC3)C2)cc1OC` (stereo not shown) [Example 260] to `CN(C)C(c1ccc(F)cc1)C1CCC(CNC(=O)COCC2CCCN2S(=O)(=O)c2ccc(Cl)c(Cl)c2)CC1` (stereo not shown) [Example 267], the “B1R Ant. h [10 μM] % Inhibition” value rises from −7% to 68%.

Compared with `COc1ccc(S(=O)(=O)N2CCCCC2COCC(=O)NC2CCC(C(c3cccs3)N(C)C)CC2)cc1OC` (stereo not shown) [Example 261], `CN(C)C(c1ccccc1)C1CCC(NC(=O)COCC2CCCN2S(=O)(=O)c2c(Cl)cc(Cl)cc2Cl)CC1` (stereo not shown) [Example 611, N-[4-(Dimethylaminophenylmethyl)-cyclohexyl]-2-[1-(2,4,6-trichlorobenzenesulfonyl)-pyrrolidin-2-ylmethoxy]-acetamide] is higher in “B1R Ant. h [10 μM] % Inhibition” value: −28% for the first, 97% for the second.

First: CN(C)C(c1cccc(F)c1)C1CCC(NC(=O)COC2CCN(S(=O)(=O)c3ccccc3)C2)CC1 (stereo not shown) [Example 271]
Second: CN(C)C(c1cccc(F)c1)C1CCC(NC(=O)COC2CCCN(S(=O)(=O)c3ccccc3)C2)CC1 (stereo not shown) [Example 277]
The “B1R Ant. h [10 μM] % Inhibition” value of the first is lower: −7% for the first, 4% for the second.

Going from `Cc1ccc(S(=O)(=O)N2CCC(OCC(=O)NCCC3CCC(C(c4cccs4)N(C)C)CC3)C2)cc1` (stereo not shown) [Example 272] to `CN(C)C(c1cccs1)C1CCC(CNC(=O)COC2CCN(S(=O)(=O)c3ccccc3)CC2)CC1` (stereo not shown) [Example 276], the “B1R Ant. h [10 μM] % Inhibition” value falls from 20% to −12%.

First: Cc1ccc(S(=O)(=O)N(C)CCOCC(=O)NCC2CCC(C(c3ccc(Cl)cc3)N(C)C)CC2)cc1 (stereo not shown) [Example 273]
Second: CN(C)C(c1ccccc1)C1CCC(CNC(=O)COCCN(C)S(=O)(=O)c2c(Cl)cc(Cl)cc2Cl)CC1 (stereo not shown) [Example 614, N-[4-(dimethylaminophenylmethyl)-cyclohexylmethyl]-2-{2-[(2,4,6-trichlorobenzenesulfonyl)-methylamino]-ethoxy}-acetamide]
The “B1R Ant. h [10 μM] % Inhibition” value of the first is lower: 25% for the first, 102% for the second.

Going from `CN(CCOCC(=O)NC1CCC(C(c2ccccc2)N2CCCC2)CC1)S(=O)(=O)c1c(Cl)cc(Cl)cc1Cl` (stereo not shown) [Example 606, 2-{2-[methyl-(2,4,6-trichlorobenzenesulfonyl)-amino]-ethoxy}-N-[4-(phenylpyrrolidin-1-yl-methyl)-cyclohexyl]-acetamide] to `CN(C)C(c1ccccc1)C1CCC(NC(=O)COCC2CCCN2S(=O)(=O)c2c(Cl)cc(Cl)cc2Cl)CC1` (stereo not shown) [Example 612, N-[4-(Dimethylaminophenylmethyl)-cyclohexyl]-2-[1-(2,4,6-trichlorobenzenesulfonyl)-pyrrolidin-2-ylmethoxy]-acetamide], the “B1R Ant. h [10 μM] % Inhibition” value rises from 77% to 103%.

In the case of `CN(C)C(c1ccccc1)C1CCC(NC(=O)COCC2CCCN2S(=O)(=O)c2c(Cl)cc(Cl)cc2Cl)CC1` (stereo not shown) [Example 613, N-[4-(Dimethylaminophenylmethyl)-cyclohexyl]-2-[1-(2,4,6-trichlorobenzenesulfonyl)-pyrrolidin-2-ylmethoxy]-acetamide], the “B1R Ant. h [10 μM] % Inhibition” value is reported as 66%.

Same assay, conditions: CHO-K1, B1R antagonism human; test substance 10 μM; Ca2+ FLIPR, CHO K1 hB1R cells; read-out: B1R Ant. h [10 μM] % Inhibition

Compared with `O=C(COCCN(C1CC1)S(=O)(=O)c1c(Cl)cc(Cl)cc1Cl)NC1CCC(C(c2ccccc2)N2CCCC2)CC1` (stereo not shown) [Example 603, 2-{2-[cyclopropyl-(2,4,6-trichlorobenzenesulfonyl)-amino]-ethoxy}-N-[4-(phenylpyrrolidin-1-ylmethyl)-cyclohexyl]-acetamide], `CN(C)C(c1ccccc1)C1CCC(NC(=O)COC2CCCN(S(=O)(=O)c3c(Cl)cc(Cl)cc3Cl)C2)CC1` (stereo not shown) [Example 608, N-[4-(dimethylaminophenylmethyl)-cyclohexyl]-2-[1-(2,4,6-trichlorobenzenesulfonyl)-piperidin-3-yloxy]-acetamide] is lower in inhibition at 10 µM: 86% for the first, 78% for the second.

First: CN(C)C(c1ccccc1)C1CCC(NC(=O)COC2CCN(S(=O)(=O)c3c(Cl)cc(Cl)cc3Cl)C2)CC1 (stereo not shown) [Example 609, N-[4-(dimethylaminophenylmethyl)-cyclohexyl]-2-[1-(2,4,6-trichlorobenzenesulfonyl)-pyrrolidin-3-yloxy]-acetamide]
Second: CN(C)C(c1ccccc1)C1CCC(NC(=O)COCCN(C)S(=O)(=O)c2c(Cl)cc(Cl)cc2Cl)C1 (stereo not shown) [Example 615, N-[3-(dimethylaminophenylmethyl)-cyclopentyl]-2-{2-[(2,4,6-trichlorobenzenesulfonyl)-methylamino]-ethoxy}-acetamide]
The inhibition at 10 µM of the first is lower: 64% for the first, 95% for the second.
